“Also recorded” adds a separate entry of the source. No end group written: not given here.
Legend:
[1] = system: B. anthracis (Sterne and ΔAmes) spores; assay type: binding, Bacillus anthracis
B. cereus T spores = assay type: binding, Bacillus cereus
[2] = system: B. thuringiensis subsp. kurstaki spores; assay type: binding, Bacillus thuringiensis
[3] = system: spores of 15 of the other Bacillus strains; assay type: binding
[4] = system: B. anthracis spores (Sterne, delta-Ames); assay type: binding, Bacillus anthracis
[5] = system: spores of B. thuringiensis subsp. kurstaki; assay type: binding, Bacillus thuringiensis
spores of B. cereus T = assay type: binding, Bacillus cereus
[6] = system: spores of the other Bacillus strains; assay type: binding
[7] = system: Bacillus spores of each experiment shown in FIG. 3; assay type: binding
B. cereus T spore = assay type: binding, Bacillus cereus
spores of B. subtilis = assay type: binding, Bacillus subtilis
B. subtilis spores = assay type: binding, Bacillus subtilis
[8] = system: B. anthracis spores (delta-Ames, Sterne); assay type: binding, Bacillus anthracis
[9] = system: vegetative cells of the Sterne and ΔAmes strains; assay type: binding, Bacillus anthracis
spores of B. cerues T = assay type: binding, Bacillus cereus

Substance: ATYPLPIRGGGC-PE (PE conjugate)
- binding of the conjugate to spores [1]: extensive binding
- enhancement of binding relative to TYPLPIRGGGC-PE [1]: ~10 fold
- binding of the conjugate to spores (B. cereus T spores): limited binding
- binding relative to TYPLPIRGGGC-PE (B. cereus T spores): only slightly enhanced
- binding of the conjugate to spores [2]: limited binding
- binding relative to TYPLPIRGGGC-PE [2]: only slightly enhanced
- binding of the conjugate to spores [3]: did not permit detectable binding; also recorded: No peptide-conjugate binding was observed
- fluorescent labeling of spores [4]: completely encircled by fluorescent ligand; also recorded: readily detectable
- fluorescent labeling of spores [5]: low-level but detectable binding
- fluorescent labeling of spores (spores of B. cereus T): low-level but detectable binding
- fluorescent labeling of spores [6]: not other strains; also recorded: essentially nonfluorescent

Substance: HWHHHGHGGGC (also: PE conjugate) [HWHHHGHGGGC-PE]
- spore binding of control peptide-PE conjugates [7]: No significant binding

Substance: ILPRPYTGGGC (also: PE conjugate) [ILPRPYTGGGC-PE]
- spore binding of control peptide-PE conjugates [7]: No significant binding

Substance: LLSPLHR [Sequence 6 (Table 5)]
- number of phage containing the sequence (B. cereus T spore): 6. (2)

Substance: NHFL (B. subtilis)
- binding to the spores (ligand quality) (spores of B. subtilis): poor ligand

Substance: NHFLP (B. subtilis)
- binding to the spores (ligand quality) (spores of B. subtilis): tight binding

Substance: NHFLPKV [Isolate 4 (Table 1)]
- binding of the peptide to the spore (B. subtilis spores): bound tightly
- eluted phage examined that contained the sequence (B. subtilis spores): Seven of the ten
- enrichment of this phage (B. subtilis spores): 700 fold

Substance: SLLPGLPGGGC-PE (PE conjugate)
- binding of the conjugate to spores [1]: no binding
- binding of the conjugate to spores (B. cereus T spores): extensive binding
- binding of the conjugate to spores [2]: extensive binding
- binding of the conjugate to spores [3]: No peptide-conjugate binding was observed

Substance: THRLPSR [Sequence 1 (Table 5)]
- number of phage containing the sequence (B. cereus T spore): 1. (2)

Substance: TYPIPFR [Isolate 6 (Table 3)]
- number of phage containing the sequence [8]: three

Substance: TYPIPIR [Isolate 5 (Table 3)]
- number of phage containing the sequence [8]: three

Substance: TYPLPIRGGGC-PE (PE conjugate)
- binding of the peptide-PE conjugate to spores [1]: concentration-dependent binding
- effect of bovine serum albumin on conjugate binding [1]: not inhibited
- binding of the peptide-PE conjugate to spores, compared with B. anthracis spores (B. cereus T spores): weaker (or less extensive)
- binding of the peptide-PE conjugate to spores, compared with B. anthracis spores [2]: weaker (or less extensive)
- binding of the peptide-PE conjugate to spores [3]: did not bind
- binding of the peptide-PE conjugate to spores at the highest concentration [3]: minimal binding
- binding to vegetative cells [9]: did not bind

Substance: TYPVPHR [Isolate 9 (Table 3)]
- number of phage containing the sequence [8]: once

Substance: WSPLHKH [Sequence 8 (Table 5)]
- binding to spores (spores of B. cerues T): tight binding
- eluted phage that contained the sequence (spores of B. cerues T): Six of the twenty
- enrichment of this phage (spores of B. cerues T): 300 fold

— patent publication US20070281302A1 (priority 1998, published 2007)
